Data as given in patent US12404244B2, “Pan-KIT kinase inhibitor having quinoline structure and application thereof” (Tarapeutics Science Inc., priority 2018, dated 2025).
Where two headings read alike, the source gives them in different places.

Legend:
Format in all cases: cell-based
TEL-KIT/T670I/V559D-BaF3 = experiment: Proliferation of TEL-KIT/T670I/V559D-BaF3 cells (CCK-8); settings: Mus musculus, read-out: GI50 TEL-KIT/T670I/V559D-BaF3
Source text: (§1) Compounds as provided herein were further evaluated for their inhibitory effects on proliferation of cancer cells by testing their effects on growth of cancer cells. In this example the following cells were used: primary mouse B cells BaF3 (purchased from ATCC), GIST-T1 cells of the human gastrointestinal stromal tumor cell line (expressing wild-type KIT gene) (purchased from Cosmo Bio Co., Ltd. (Japan)). The present lab further constructed and used the following: mouse Tel-Kit-BaF3 (stably expressing KIT wild-type kinase), mouse Tel-Kit/T670I-BaF3 (stably expressing KIT T670I mutant kinase), mouse Tel-Kit/V559A-BaF3 (stably expressing KIT V559A mutant kinase), mouse Tel-Kit/V559D-BaF3 (stably expressing KIT V559D mutant kinase), mouse Tel-Kit/V559G-BaF3 (stably expressing KIT V559G mutant kinase), mouse Tel-Kit/V560D-BaF3 (stably expressing KIT V560D mutant kinase), mouse Tel-Kit/L576P-BaF3 (stably expressing KIT L576P mutant kinase), mouse Tel-Kit/V654A-BaF3 (stably expressing KIT V654A mutant kinase), mouse Tel-Kit/V654A/V559D-BaF3 (stably expressing KIT V654A V559D mutant kinase), mouse Tel-Kit/T670E-BaF3 (stably expressing KIT T670E mutant kinase), mouse Tel-Kit/T670I/V559D-BaF3 (stably expressing KIT T670I V559D mutant kinase), mouse Tel-Kit/S709F-BaF3 (stably expressing KIT S709F mutant kinase), mouse Tel-Kit/D816E-BaF3 (stably expressing KIT D816E mutant kinase), mouse Tel-Kit/D816H-BaF3 (stably expressing KIT D816H mutant kinase), mouse Tel-Kit/D820E-BaF3 (stably expressing KIT D820E mutant kinase), mouse Tel-Kit/D820G-BaF3 (stably expressing KIT D820G mutant kinase), mouse Tel-Kit/D820Y-BaF3 (stably expressing KIT D820Y mutant kinase), mouse Tel-Kit/N822K-BaF3 (stably expressing KIT N822K mutant kinase), mouse Tel-Kit/Y823D-BaF3 (stably expressing KIT Y823D mutant kinase), mouse Tel-Kit/A829P-BaF3 (stably expressing KIT A829P mutant kinase), GIST-T1-T670I cells of the human gastrointestinal stromal tumor cell line (expressing KIT-T670I mutant gene). The above cell lines were constructed by: amplifying respectively the sequences of human KIT and various mutant kinase regions of KIT via PCR, inserting the fragments respectively into MSCV-Puro vectors having a N-terminal TEL fragment and/or a NPM fragment and/or a TPR fragment (purchased from Clontech), transfecting mouse BaF3 cells with the vectors by means of retrovirus to obtain stably transfected cells, removing the growth factor IL-3, and thereby eventually obtaining cell lines that depend on the transferred protein KIT or various mutants of KIT. […]

TEL-KIT/L576P-BaF3 = experiment: Proliferation of TEL-KIT/L576P-BaF3 cells (CCK-8); settings: Mus musculus, read-out: GI50 TEL-KIT/L576P-BaF3
Source text: as §1, with “gene).” for “gene). The above cell lines were constructed by: amplifying respectively the sequences of human KIT and various mutant kinase regions of KIT via PCR, inserting the fragments respectively into MSCV-Puro vectors having a N-terminal TEL fragment and/or a NPM fragment and/or a TPR fragment (purchased from Clontech), transfecting mouse BaF3 cells with the vectors by means of retrovirus to obtain stably transfected cells, removing the growth factor IL-3, and thereby eventually obtaining cell lines that depend on the transferred protein KIT or various mutants of KIT.”

TEL-KIT/D816H-BaF3 = experiment: Proliferation of TEL-KIT/D816H-BaF3 cells (CCK-8); settings: Mus musculus, read-out: GI50 TEL-KIT/D816H-BaF3
Source text: as §1

TEL-KIT/V654A/V559D-BaF3 = experiment: Proliferation of TEL-KIT/V654A/V559D-BaF3 cells (CCK-8); settings: Mus musculus, read-out: GI50 TEL-KIT/V654A/V559D-BaF3
Source text: as §1

TEL-KIT/T670E-BaF3 = experiment: Proliferation of TEL-KIT/T670E-BaF3 cells (CCK-8); settings: Mus musculus, read-out: GI50 TEL-KIT/T670E-BaF3
Source text: as §1

GIST-T1/T670I = experiment: Proliferation of GIST-T1/T670I cells (CCK-8); settings: Homo sapiens, read-out: GI50 GIST-T1/T670I
Source text: as §1, with “gene).” for “gene). The above cell lines were constructed by: amplifying respectively the sequences of human KIT and various mutant kinase regions of KIT via PCR, inserting the fragments respectively into MSCV-Puro vectors having a N-terminal TEL fragment and/or a NPM fragment and/or a TPR fragment (purchased from Clontech), transfecting mouse BaF3 cells with the vectors by means of retrovirus to obtain stably transfected cells, removing the growth factor IL-3, and thereby eventually obtaining cell lines that depend on the transferred protein KIT or various mutants of KIT.”
(§2) The cells after incubation were detected using CCK-8 (purchased from MedChem Express, Shanghai, China) cell viability assay kit (CCK-8 may be reduced by dehydrogenase in living cells to a highly water-soluble yellow formazan product, and the amount of the resultant formazan is proportional to the number of living cells), the number of living cells were quantified with a microplate reader, and GI50 of the compounds and the control compounds were calculated (the results shown in Table 2 and Table 3).

TEL-KIT/V559D-BaF3 = experiment: Proliferation of TEL-KIT/V559D-BaF3 cells (CCK-8); settings: Mus musculus, read-out: GI50 TEL-KIT/V559D-BaF3
Source text: as §1

TEL-KIT/D820G-BaF3 = experiment: Proliferation of TEL-KIT/D820G-BaF3 cells (CCK-8); settings: Mus musculus, read-out: GI50 TEL-KIT/D820G-BaF3
Source text: as §1

TEL-KIT/D820Y-BaF3 = experiment: Proliferation of TEL-KIT/D820Y-BaF3 cells (CCK-8); settings: Mus musculus, read-out: GI50 TEL-KIT/D820Y-BaF3
Source text: as §1

GIST-T1 = experiment: Proliferation of GIST-T1 cells (CCK-8); settings: Homo sapiens, read-out: GI50 GIST-T1
Source text: as §1, with “gene).” for “gene). The above cell lines were constructed by: amplifying respectively the sequences of human KIT and various mutant kinase regions of KIT via PCR, inserting the fragments respectively into MSCV-Puro vectors having a N-terminal TEL fragment and/or a NPM fragment and/or a TPR fragment (purchased from Clontech), transfecting mouse BaF3 cells with the vectors by means of retrovirus to obtain stably transfected cells, removing the growth factor IL-3, and thereby eventually obtaining cell lines that depend on the transferred protein KIT or various mutants of KIT.”
as §2

TEL-KIT/D820E-BaF3 = experiment: Proliferation of TEL-KIT/D820E-BaF3 cells (CCK-8); settings: Mus musculus, read-out: GI50 TEL-KIT/D820E-BaF3
Source text: as §1

TEL-KIT/Y823D-BaF3 = experiment: Proliferation of TEL-KIT/Y823D-BaF3 cells (CCK-8); settings: Mus musculus, read-out: GI50 TEL-KIT/Y823D-BaF3
Source text: as §1

TEL-KIT/D816E-BaF3 = experiment: Proliferation of TEL-KIT/D816E-BaF3 cells (CCK-8); settings: Mus musculus, read-out: GI50 TEL-KIT/D816E-BaF3
Source text: as §1

TEL-KIT/S709F-BaF3 = experiment: Proliferation of TEL-KIT/S709F-BaF3 cells (CCK-8); settings: Mus musculus, read-out: GI50 TEL-KIT/S709F-BaF3
Source text: as §1

Row | GI50 (TEL-KIT/T670I/V559D-BaF3; 72 hours, CCK-8) [nM] | GI50 (TEL-KIT/L576P-BaF3; 72 hours, CCK-8) [nM] | GI50 (TEL-KIT/D816H-BaF3; 72 hours, CCK-8) [nM] | GI50 (TEL-KIT/V654A/V559D-BaF3; 72 hours, CCK-8) [nM] | GI50 (TEL-KIT/T670E-BaF3; 72 hours, CCK-8) [nM] | GI50 (TEL-KIT/V559D-BaF3; 72 hours, CCK-8) [nM] | GI50 (TEL-KIT/D820G-BaF3; 72 hours, CCK-8) [nM] | GI50 (TEL-KIT/D820Y-BaF3; 72 hours, CCK-8) [nM] | GI50 (TEL-KIT/D820E-BaF3; 72 hours, CCK-8) [nM] | GI50 (TEL-KIT/Y823D-BaF3; 72 hours, CCK-8) [nM] | GI50 (TEL-KIT/D816E-BaF3; 72 hours, CCK-8) [nM] | GI50 (TEL-KIT/S709F-BaF3; 72 hours, CCK-8) [nM] | Compound | GI50 (GIST-T1/T670I; GISTT1, 72 hours, CCK-8) [nM] | GI50 (GIST-T1; GISTT1, 72 hours, CCK-8) [nM] | also measured
1 | 12 | 6 | 315 | 19 | 89 | 1 | 389 | 172 | 93 | 704 | 59 | 28 | CCN(CC)CCNC(=O)c1c(C)[nH]c(/C=C2\C(=O)Nc3ccc(F)cc32)c1C [Sunitinib, reference compound] | 4 | 11 | –
2 | 45 | 1 | 97 | 42 | 71 | 6 | 9 | 3 | 1 | 35 | 16 | 17 | COc1cc2nccc(Oc3ccc(NC(=O)Cc4ccc(Cl)c(C(F)(F)F)c4)cc3)c2cc1OC [Example 2, N-(4-((6,7-dimethoxyquinolin-4-yl)oxy)phenyl)-2-(4-chloro-3-(trifluoromethyl)phenyl)-acetamide] | 11 | 6 | –
3 | – | – | – | – | – | – | – | – | – | – | – | – | COc1cc2nccc(Oc3ccc(NC(=O)Cc4ccc(C)c(C(F)(F)F)c4)cc3)c2cc1OC [Example 1, N-(4-((6,7-dimethoxyquinolin-4-yl)oxy)phenyl)-2-(4-methyl-3-(trifluoromethyl)phenyl)acetamide] | – | – | GI50 (TEL-KIT/T670I/V559D-BaF3; 72 h): 48 nM; GI50 (TEL-KIT/L576P-BaF3; 72 h): 2 nM; GI50 (TEL-KIT/D816H-BaF3; 72 h): 58 nM; GI50 (TEL-KIT/V654A/V559D-BaF3; 72 h): 39 nM; GI50 (TEL-KIT/T670E-BaF3; 72 h): 53 nM; GI50 (GIST-T1/T670I; GISTT1, 72 h): 16 nM; GI50 (TEL-KIT/V559D-BaF3; 72 h): 4 nM; GI50 (TEL-KIT/D820G-BaF3; 72 h): 9 nM; GI50 (TEL-KIT/D820Y-BaF3; 72 h): 6 nM; GI50 (GIST-T1; GISTT1, 72 h): 5 nM; GI50 (TEL-KIT/D820E-BaF3; 72 h): 5 nM; GI50 (TEL-KIT/Y823D-BaF3; 72 h): 15 nM; GI50 (TEL-KIT/D816E-BaF3; 72 h): 9 nM; GI50 (TEL-KIT/S709F-BaF3; 72 h): 11 nM
